Calls of active or inactive are those of the source. The calls are words filed in the database; no cut-off is given here.

Experiment [1] can be described thus: Induction of NO production in pH 7.4 PBS incubated for 1 to 14 hrs under dark conditions and measured every 1 hr for 2 hrs and then every 2 hrs for remaining time by Griess assay. It counts as functional.
A further experiment concerns the target Dipeptidyl peptidase 8 (Homo sapiens, UniProt Q6V1X1). The experiment in a line: Inhibition of human recombinant DPP-8 using H-Gly-Pro-AMC as substrate after 10 mins by fluorescence assay.
Experiment [2] in a line: Inhibition of ADP-induced platelet aggregation in human platelet-rich plasma at 0.1 mM preincubated for 5 mins followed by ADP-stimulation and measured within 5 mins by Born's turbidimetric analysis relative to control. The settings on record: read-out: INH.
In a further experiment the target is Dipeptidyl peptidase 9 (Homo sapiens, UniProt Q86TI2). The experiment in a line: Inhibition of human recombinant DPP-9 using H-Gly-Pro-AMC as substrate after 10 mins by fluorescence assay.
Chain of Dipeptidyl peptidase 9 (Q86TI2 whole entry): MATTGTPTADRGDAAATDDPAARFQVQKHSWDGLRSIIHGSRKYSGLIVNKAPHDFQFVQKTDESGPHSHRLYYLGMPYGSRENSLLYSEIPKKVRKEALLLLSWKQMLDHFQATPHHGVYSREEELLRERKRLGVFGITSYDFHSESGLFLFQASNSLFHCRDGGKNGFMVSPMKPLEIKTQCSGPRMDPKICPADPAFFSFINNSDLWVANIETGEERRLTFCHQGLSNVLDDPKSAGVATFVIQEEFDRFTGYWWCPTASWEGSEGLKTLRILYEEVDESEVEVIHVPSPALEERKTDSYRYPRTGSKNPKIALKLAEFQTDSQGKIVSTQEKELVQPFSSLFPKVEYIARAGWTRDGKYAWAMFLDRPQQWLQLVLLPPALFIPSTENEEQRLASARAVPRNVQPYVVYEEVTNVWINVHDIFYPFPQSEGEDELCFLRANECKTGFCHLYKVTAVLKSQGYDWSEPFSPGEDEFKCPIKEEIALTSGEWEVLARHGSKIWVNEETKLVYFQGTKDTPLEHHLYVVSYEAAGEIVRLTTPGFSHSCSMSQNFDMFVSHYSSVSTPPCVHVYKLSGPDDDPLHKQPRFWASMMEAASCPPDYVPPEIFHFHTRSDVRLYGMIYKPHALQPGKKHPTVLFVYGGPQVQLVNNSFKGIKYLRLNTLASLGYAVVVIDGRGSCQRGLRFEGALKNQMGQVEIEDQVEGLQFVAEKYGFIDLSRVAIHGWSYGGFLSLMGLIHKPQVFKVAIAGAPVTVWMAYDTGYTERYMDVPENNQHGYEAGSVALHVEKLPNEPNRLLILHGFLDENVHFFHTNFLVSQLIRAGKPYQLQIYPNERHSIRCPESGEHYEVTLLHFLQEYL

Chain of Dipeptidyl peptidase 8 (Q6V1X1 whole entry): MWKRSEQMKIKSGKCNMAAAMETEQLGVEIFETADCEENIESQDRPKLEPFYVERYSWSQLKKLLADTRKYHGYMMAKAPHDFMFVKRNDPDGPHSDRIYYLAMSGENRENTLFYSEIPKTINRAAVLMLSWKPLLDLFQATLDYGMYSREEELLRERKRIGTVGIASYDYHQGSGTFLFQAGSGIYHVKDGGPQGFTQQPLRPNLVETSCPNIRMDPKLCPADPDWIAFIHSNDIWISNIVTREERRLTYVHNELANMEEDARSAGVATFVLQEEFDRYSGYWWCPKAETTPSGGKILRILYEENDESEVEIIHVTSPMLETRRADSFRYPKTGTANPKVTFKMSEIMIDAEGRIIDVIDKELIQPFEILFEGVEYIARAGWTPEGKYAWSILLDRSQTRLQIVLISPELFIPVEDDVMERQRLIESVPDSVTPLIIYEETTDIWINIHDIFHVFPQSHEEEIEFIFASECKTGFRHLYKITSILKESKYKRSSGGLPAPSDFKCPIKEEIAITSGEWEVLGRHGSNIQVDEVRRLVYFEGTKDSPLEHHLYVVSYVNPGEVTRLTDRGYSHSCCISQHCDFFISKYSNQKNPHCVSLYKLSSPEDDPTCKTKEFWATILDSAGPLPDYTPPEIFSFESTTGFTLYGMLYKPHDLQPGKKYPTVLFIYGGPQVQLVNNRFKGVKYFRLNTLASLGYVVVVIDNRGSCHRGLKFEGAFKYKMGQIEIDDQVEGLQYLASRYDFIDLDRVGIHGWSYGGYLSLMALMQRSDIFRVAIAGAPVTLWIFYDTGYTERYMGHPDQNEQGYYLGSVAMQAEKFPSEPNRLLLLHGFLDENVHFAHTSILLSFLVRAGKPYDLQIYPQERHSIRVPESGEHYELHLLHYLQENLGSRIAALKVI

Take `O=C(CCCCCO[N+](=O)[O-])N[C@@H](CC(=O)N1CCn2c(nnc2C(F)(F)F)C1)Cc1cc(F)c(F)cc1F`: the outcome in experiment [1] was Active. Also, the IC50 on Dipeptidyl peptidase 8 and on Dipeptidyl peptidase 9 was over 100 µM in each case. Also, the inhibition at 100 µM in experiment [2] came out at 40.2%.

`O=C(CO[N+](=O)[O-])N[C@@H](CC(=O)N1CCn2c(nnc2C(F)(F)F)C1)Cc1cc(F)c(F)cc1F`: in experiment [1], the result was Active. The concentration for half-maximal inhibition (IC50) on Dipeptidyl peptidase 8 and at Dipeptidyl peptidase 9 was over 100 µM each time. Also, in experiment [2], the inhibition at 100 µM stood at 22.4%.

Turning to `O=C(CO)N[C@@H](CC(=O)N1CCn2c(nnc2C(F)(F)F)C1)Cc1cc(F)c(F)cc1F`, the half-maximal inhibitory concentration (IC50) on Dipeptidyl peptidase 8 and at Dipeptidyl peptidase 9 was over 100 µM throughout. In addition, the inhibition at 100 µM in experiment [2] amounted to 3.22%.

Take `O=C(CCCCO[N+](=O)[O-])N[C@@H](CC(=O)N1CCn2c(nnc2C(F)(F)F)C1)Cc1cc(F)c(F)cc1F`: in experiment [1], the outcome was Active. The IC50 on Dipeptidyl peptidase 8 and on Dipeptidyl peptidase 9 was over 100 µM in each case. Moreover, the inhibition at 100 µM in experiment [2] was 32.1%.

`O=C(CCCO)N[C@@H](CC(=O)N1CCn2c(nnc2C(F)(F)F)C1)Cc1cc(F)c(F)cc1F`: the IC50 at Dipeptidyl peptidase 8 and on Dipeptidyl peptidase 9 was over 100 µM in each case. Besides, the inhibition at 100 µM in experiment [2] is 3.41%.

Regarding `O=C(CCCCO)N[C@@H](CC(=O)N1CCn2c(nnc2C(F)(F)F)C1)Cc1cc(F)c(F)cc1F`, the IC50 on Dipeptidyl peptidase 8 and at Dipeptidyl peptidase 9 was over 100 µM each time. The inhibition at 100 µM in experiment [2] turned out to be 2.02%.

For `O=C(CCCO[N+](=O)[O-])N[C@@H](CC(=O)N1CCn2c(nnc2C(F)(F)F)C1)Cc1cc(F)c(F)cc1F`, in experiment [1], the outcome was Active. Also, the half-inhibitory concentration (IC50) at Dipeptidyl peptidase 8 and at Dipeptidyl peptidase 9 was over 100 µM each time. Moreover, the inhibition at 100 µM in experiment [2] was determined as 27.6%.

Consider `CC(=O)Oc1ccccc1C(=O)O` [ASPIRIN], for which the inhibition at 100 µM in experiment [2] was found to be 26%.

Turning to `N[C@@H](CC(=O)N1CCn2c(nnc2C(F)(F)F)C1)Cc1cc(F)c(F)cc1F` [SITAGLIPTIN], the inhibition at 100 µM in experiment [2] came out at 4.24%.

`O=C(CCCCCO)N[C@@H](CC(=O)N1CCn2c(nnc2C(F)(F)F)C1)Cc1cc(F)c(F)cc1F`: the IC50 on Dipeptidyl peptidase 8 and on Dipeptidyl peptidase 9 was over 100 µM each time. In experiment [2], the inhibition at 100 µM stood at 3.63%.

What is called IC50 is the concentration at which inhibition is half-maximal.

The record behind these values is ChEMBL document CHEMBL4325850 (Bioorg Med Chem Lett, 2018).
